Test results taken from patent US20070128217A1 (priority 2003, published 2007).

What was measured:
[1] = tested on: control sera (pooled serum of ten healthy LUMC hospital workers; commercial negative donor pooled serum from the Dutch bloodbank); type: binding, human; design: Binding of Control serum LUMC to linear peptides / Binding of Control serum Blood-bank to linear peptides / Binding of Control serum LUMC to looped peptides / Binding of Control Serum Blood-Bank to Looped peptides / Binding of Control serum LUMC to linear peptides of the protein M of SARS-CoV Urbani / Binding of Control serum Blood-bank to linear peptides of the protein M of SARS-CoV Urbani / Binding of Control serum LUMC to looped peptides of the protein M of SARS-CoV Urbani / Binding of Control Serum Blood-Bank to Looped peptides of the protein M of SARS-CoV Urbani: unit not given here
[2] = tested on: rabbit serum obtained by immunizing a rabbit with the SARS-CoV strain Frankfurt 1; type: binding; design: Binding of a rabbit serum to linear peptides / Binding of a rabbit serum to looped peptides / Rabbit serum linear peptides / Rabbit serum looped peptides / Binding of a rabbit serum to linear peptides of protein N of SARS-CoV Urbani (Rabbit serum linear peptides) / Binding of a rabbit serum to looped/cyclic peptides of protein N of SARS-CoV Urbani (Rabbit serum looped peptides): unit not given here
[3] = tested on: antibodies in sera from SARS patients (sera 1a, 1b, 2, 6, 37, 62, London, SARS-yellow, SARS-green); type: binding, human; design: Binding of serum 6 to linear peptides of protein X1 of SARS-CoV Urbani / Binding of serum 37 to linear peptides of protein X1 of SARS-CoV Urbani / Binding of serum 6 to looped/cyclic peptide (PEPSCAN-ELISA) / Binding of serum 37 to looped/cyclic peptide (PEPSCAN-ELISA) / Binding of serum 37 to looped/cyclic peptides of protein X1 of SARS-CoV Urbani / Binding of serum 6 to linear peptides of protein X2 / Binding of serum 37 to linear peptides of protein X2 / Binding of serum 37 to looped/cyclic peptides of protein X2 of SARS-CoV Urbani / Binding of serum 6 to linear peptides of protein M of SARS-CoV Urbani / Binding of serum 37 to linear peptides of protein M of SARS-CoV Urbani / Binding of serum 6 to looped/cyclic peptides of protein M of SARS-CoV Urbani / Binding of serum 37 to looped/cyclic peptides of protein M of SARS-CoV Urbani / Binding of serum 6 to linear peptides of protein X3 of SARS-CoV Urbani / Binding of serum 37 to linear peptides of protein X3 of SARS-CoV Urbani / Binding of serum 37 to looped/cyclic peptides of protein X3 of SARS-CoV Urbani / Binding of serum 6 to linear peptides of protein X4 of SARS-CoV Urbani / Binding of serum 37 to linear peptides of protein X4 of SARS-CoV Urbani / Binding of serum 37 to looped/cyclic peptides of protein X4 of SARS-CoV Urbani / Binding of serum 6 to linear peptides of protein X5 of SARS-CoV Urbani / Binding of serum 37 to linear peptides of protein X5 of SARS-CoV Urbani / Binding of serum 37 to looped/cyclic peptides of protein X5 of SARS-CoV Urbani / Binding of serum 6 to linear peptides of protein N of SARS-CoV Urbani / Binding of serum 37 to linear peptides of protein N of SARS-CoV Urbani / Binding of serum 6 to linear peptide (PEPSCAN-ELISA) / Binding of serum 1a to looped/cyclic peptides of protein N of SARS-CoV Urbani / Binding of serum 1b to looped/cyclic peptides of protein N of SARS-CoV Urbani / Binding of serum 2 to looped/cyclic peptides of protein N of SARS-CoV Urbani / Binding of serum 6 to looped/cyclic peptides of protein N of SARS-CoV Urbani / Binding of serum 37 to looped/cyclic peptides of protein N of SARS-CoV Urbani / Binding of serum 62 to looped/cyclic peptides of protein N of SARS-CoV Urbani / Binding of serum London to looped/cyclic peptides of protein N of SARS-CoV Urbani / Binding of serum SARS-green to looped/cyclic peptides of protein N of SARS-CoV Urbani: unit not given here

## LLWPVTLACFVLAAV
[1]
  Binding of Control Serum Blood-Bank to Looped peptides of the protein M of SARS-CoV Urbani: 0.6
  Binding of Control serum Blood-bank to linear peptides of the protein M of SARS-CoV Urbani: 0.7
  Binding of Control serum LUMC to linear peptides of the protein M of SARS-CoV Urbani: 0.7
  Binding of Control serum LUMC to looped peptides of the protein M of SARS-CoV Urbani: 0.7
[2]
  Rabbit serum linear peptides: 0.2
  Rabbit serum looped peptides: 0.3
[3]
  Binding of serum 1a to linear peptides of protein M of SARS-CoV Urbani: 0.7
  Binding of serum 1a to looped/cyclic peptides of protein M of SARS-CoV Urbani: 0.9
  Binding of serum 1b to linear peptides of protein M of SARS-CoV Urbani: 0.5
  Binding of serum 1b to looped/cyclic peptides of protein M of SARS-CoV Urbani: 0.5
  Binding of serum 2 to linear peptides of protein M of SARS-CoV Urbani: 0.6
  Binding of serum 2 to looped/cyclic peptides of protein M of SARS-CoV Urbani: 0.9
  Binding of serum 6 to linear peptides of protein M of SARS-CoV Urbani: 0.4
  Binding of serum 6 to looped/cyclic peptides of protein M of SARS-CoV Urbani: 0.6
  Binding of serum 37 to linear peptides of protein M of SARS-CoV Urbani: 0.5
  Binding of serum 37 to looped/cyclic peptides of protein M of SARS-CoV Urbani: 0.8
  Binding of serum 62 to linear peptides of protein M of SARS-CoV Urbani: 0.5
  Binding of serum 62 to looped/cyclic peptides of protein M of SARS-CoV Urbani: 0.8
  Binding of serum London to linear peptides of protein M of SARS-CoV Urbani: 0.3
  Binding of serum London to looped/cyclic peptides of protein M of SARS-CoV Urbani: 0.3
  Binding of serum SARS-green to linear peptides of protein M of SARS-CoV Urbani: 0.5
  Binding of serum SARS-green to looped/cyclic peptides of protein M of SARS-CoV Urbani: 0.4
  Binding of serum SARS-yellow to linear peptides of protein M of SARS-CoV Urbani: 0.1
  Binding of serum SARS-yellow to looped/cyclic peptides of protein M of SARS-CoV Urbani: 0.9

## LLYDANYFVCWHTHN
[1]
  Binding of Control Serum Blood-Bank to Looped peptides: 0.6
  Binding of Control serum Blood-bank to linear peptides: 0.8
  Binding of Control serum LUMC to linear peptides: 0.7
  Binding of Control serum LUMC to looped peptides: 0.5
[2]
  Binding of a rabbit serum to linear peptides: 0.1
  Binding of a rabbit serum to looped peptides: 0.5
[3]
  Binding of serum 1a to linear peptides of protein X1 of SARS-CoV Urbani: 0.9
  Binding of serum 1a to looped/cyclic peptide (PEPSCAN-ELISA): 0.6
  Binding of serum 1b to linear peptides of protein X1 of SARS-CoV Urbani: 0.7
  Binding of serum 1b to looped/cyclic peptide (PEPSCAN-ELISA): 0.5
  Binding of serum 2 to linear peptides of protein X1 of SARS-CoV Urbani: 0.6
  Binding of serum 2 to looped/cyclic peptide (PEPSCAN-ELISA): 0.4
  Binding of serum 6 to linear peptides of protein X1 of SARS-CoV Urbani: 0.7
  Binding of serum 6 to looped/cyclic peptide (PEPSCAN-ELISA): 0.4
  Binding of serum 37 to linear peptides of protein X1 of SARS-CoV Urbani: 0.7
  Binding of serum 37 to looped/cyclic peptide (PEPSCAN-ELISA): 0.6
  Binding of serum 62 to linear peptides of protein X1 of SARS-CoV Urbani: 0.8
  Binding of serum 62 to looped/cyclic peptide (PEPSCAN-ELISA): 0.6
  Binding of serum London to linear peptides of protein X1 of SARS-CoV Urbani: 0.4
  Binding of serum London to looped/cyclic peptide (PEPSCAN-ELISA): 0.2
  Binding of serum SARS-green to linear peptides of protein X1 of SARS-CoV Urbani: 0.4
  Binding of serum SARS-green to looped/cyclic peptide (PEPSCAN-ELISA): 0.3
  Binding of serum SARS-yellow to linear peptides of protein X1 of SARS-CoV Urbani: 0.5
  Binding of serum SARS-yellow to looped/cyclic peptide (PEPSCAN-ELISA): 0.4

## LMESELVIGAVIIRG
[1]
  Binding of Control Serum Blood-Bank to Looped peptides of the protein M of SARS-CoV Urbani: 0.7
  Binding of Control serum Blood-bank to linear peptides of the protein M of SARS-CoV Urbani: 0.8
  Binding of Control serum LUMC to linear peptides of the protein M of SARS-CoV Urbani: 0.5
  Binding of Control serum LUMC to looped peptides of the protein M of SARS-CoV Urbani: 0.6
[2]
  Rabbit serum linear peptides: 0.4
  Rabbit serum looped peptides: 0.2
[3]
  Binding of serum 1a to linear peptides of protein M of SARS-CoV Urbani: 0.7
  Binding of serum 1a to looped/cyclic peptides of protein M of SARS-CoV Urbani: 0.6
  Binding of serum 1b to linear peptides of protein M of SARS-CoV Urbani: 0.5
  Binding of serum 1b to looped/cyclic peptides of protein M of SARS-CoV Urbani: 0.6
  Binding of serum 2 to linear peptides of protein M of SARS-CoV Urbani: 0.7
  Binding of serum 2 to looped/cyclic peptides of protein M of SARS-CoV Urbani: 0.5
  Binding of serum 6 to linear peptides of protein M of SARS-CoV Urbani: 0.3
  Binding of serum 6 to looped/cyclic peptides of protein M of SARS-CoV Urbani: 0.4
  Binding of serum 37 to linear peptides of protein M of SARS-CoV Urbani: 0.9
  Binding of serum 37 to looped/cyclic peptides of protein M of SARS-CoV Urbani: 0.6
  Binding of serum 62 to linear peptides of protein M of SARS-CoV Urbani: 0.8
  Binding of serum 62 to looped/cyclic peptides of protein M of SARS-CoV Urbani: 0.6
  Binding of serum London to linear peptides of protein M of SARS-CoV Urbani: 0.3
  Binding of serum London to looped/cyclic peptides of protein M of SARS-CoV Urbani: 0.2
  Binding of serum SARS-green to linear peptides of protein M of SARS-CoV Urbani: 0.3
  Binding of serum SARS-green to looped/cyclic peptides of protein M of SARS-CoV Urbani: 0.3
  Binding of serum SARS-yellow to linear peptides of protein M of SARS-CoV Urbani: 0.1
  Binding of serum SARS-yellow to looped/cyclic peptides of protein M of SARS-CoV Urbani: 0.5

## LMWLSYFVASFRLFA
[1]
  Binding of Control Serum Blood-Bank to Looped peptides of the protein M of SARS-CoV Urbani: 0.6
  Binding of Control serum Blood-bank to linear peptides of the protein M of SARS-CoV Urbani: 0.5
  Binding of Control serum LUMC to linear peptides of the protein M of SARS-CoV Urbani: 0.4
  Binding of Control serum LUMC to looped peptides of the protein M of SARS-CoV Urbani: 0.6
[2]
  Rabbit serum linear peptides: 0.0
  Rabbit serum looped peptides: 0.3
[3]
  Binding of serum 1a to linear peptides of protein M of SARS-CoV Urbani: 0.6
  Binding of serum 1b to linear peptides of protein M of SARS-CoV Urbani: 0.4
  Binding of serum 2 to linear peptides of protein M of SARS-CoV Urbani: 0.4
  Binding of serum 6 to linear peptides of protein M of SARS-CoV Urbani: 0.3
  Binding of serum 37 to linear peptides of protein M of SARS-CoV Urbani: 0.3
  Binding of serum 62 to linear peptides of protein M of SARS-CoV Urbani: 0.4
  Binding of serum London to linear peptides of protein M of SARS-CoV Urbani: 0.3
  Binding of serum SARS-green to linear peptides of protein M of SARS-CoV Urbani: 0.5
  Binding of serum SARS-yellow to linear peptides of protein M of SARS-CoV Urbani: 0.1
  Recognition of the peptide by sera of SARS-CoV infected individuals, and form (linear, looped/cyclic) in which it is recognized: recognized in looped/cyclic form
